From patent US6271238A, “Acetamide derivatives and protease inhibitors” (Nippon Kayaku Kabushiki Kaisha, priority 1996, dated 2001)
Structures can show the parent of a compound that is named as a salt. Where two headings read alike, the source gives them in different places.

Experiments:
rat chymase = target: T1, rat chymase (Rattus norvegicus, UniProt P09650); assay: Inhibitory activity on rat chymase (synthetic substrate); type: biochemical
T1 construct: 50 g rat tongue was finely divided by scissors and a scalpel; from tissue; host or cells: rat tongue
T1 sequence (P09650 21-260): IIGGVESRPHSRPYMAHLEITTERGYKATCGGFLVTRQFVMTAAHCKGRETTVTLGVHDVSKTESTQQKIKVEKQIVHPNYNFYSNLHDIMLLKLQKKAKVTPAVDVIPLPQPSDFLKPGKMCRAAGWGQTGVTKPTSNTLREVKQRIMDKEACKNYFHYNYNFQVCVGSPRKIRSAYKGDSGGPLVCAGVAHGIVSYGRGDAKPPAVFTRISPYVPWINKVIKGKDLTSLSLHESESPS
Procedure: In the present invention, chymase was purified by the methods described in these literatures, and the present compounds were examined for inhibitory activity on chymase, inhibitory action on activation of mast cells and eosinophils, and pharmacological action in animals. Hereinafter, specific methods are described. […] 50 g rat tongue was finely divided by scissors and a scalpel, suspended in 0.1 M phosphate buffer (pH 8.0), and disrupted by a Polytron homogenizer for 5 minutes to prepare a crude chymase enzyme solution. […] The supernatant was applied to an octyl Sepharose 4B column (40×100 mm) previously equilibrated with 0.1 M phosphate buffer (pH 8.0) containing 2 M sodium chloride and 5% ammonium sulfate, and the protein was eluted with a linear concentration gradient of from 2 M to 0 M sodium chloride. […] (D) Measurement of inhibitory activity on chymase (a) Measurement using the synthetic substrate The synthetic chymase substrate was used for measurement of the inhibitory activity on the rat chymase as a subtrate, and the fluorescence of formed aminomethylcoumarin after reaction was measured by a spectrophotometer. […] The test was conducted several times. Chymase was prepared for each test in the manner described above. The compounds examined were compounds prepared in the above-described examples. […] Succinyl leucyl leucyl valyl tyrosyl methylcoumarylamide (for rat […] angiotensin I (for human and dog chymase)

dog chymase = target: T2, dog chymase (Canis lupus familiaris, UniProt P21842); assay: Inhibitory activity on dog chymase (angiotensin I as substrate); type: biochemical; details: pH 8.0, 37° C., 60 min, read-out: Dog Chymase (IC50: nM), 50% inhibitory concentration
T2 construct: 60 g dog heart was finely divided by scissors and a scalpel; from tissue; host or cells: dog heart
T2 sequence (P21842 22-249): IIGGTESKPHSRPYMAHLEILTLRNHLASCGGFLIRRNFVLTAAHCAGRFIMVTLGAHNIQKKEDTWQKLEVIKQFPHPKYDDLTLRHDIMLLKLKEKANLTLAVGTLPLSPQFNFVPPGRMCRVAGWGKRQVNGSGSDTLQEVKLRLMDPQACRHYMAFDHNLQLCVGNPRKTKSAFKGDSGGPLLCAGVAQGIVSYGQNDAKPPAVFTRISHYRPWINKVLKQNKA
Text: It is known that chymase is present in tissues of various animals, and its isolation and purification methods are described in Anal. Biochem., 137, 449 (1984) and FEBS Letters, 323, 119 (1993). In the present invention, chymase was purified by the methods described in these literatures, and the present compounds were examined for inhibitory activity on chymase, inhibitory action on activation of mast cells and eosinophils, and pharmacological action in animals. Hereinafter, specific methods are described. (c) Preparation of dog chymase 60 g dog heart was finely divided by scissors and a scalpel, suspended in 0.1 M phosphate buffer (pH 8.0), and disrupted by a Polytron homogenizer for 5 minutes to prepare a crude chymase enzyme solution. It was centrifuged at 22000×g for 15 minutes, and the precipitates were used as a chymase enzyme fraction. […] An active fraction decomposing the synthetic chymase substrate was recovered and concentrated and this product was used as a purified dog chymase in the following activity measurement. (D) Measurement of inhibitory activity on chymase (b) Measurement using angiotensin I as substrate The inhibitory activity on the human chymase and dog chymase was measured using angiotensin I (Peptide Kenkyusho) as substrate besides the above synthetic substrate. […] After the end of the reaction, produced angiotensin II was immediately measured by high performance liquid chromatography to determine the activity of the chymase to calculate 50% inhibitory concentration (IC50: nM). The test was conducted several times. Chymase was prepared for each test in the manner described above. The compounds examined were compounds prepared in the above-described examples. […] 50% Inhibitory concentration (IC50: nM) of each compound toward rat chymase, dog […] human […] Substrate: Succinyl leucyl leucyl valyl tyrosyl methylcoumarylamide (for rat […] angiotensin I (for human and dog chymase)

Human elastase = target: T3, Human elastase (Homo sapiens, UniProt P08246); assay: Inhibitory activity on proteases other than chymase: human elastase; type: biochemical; details: succinyl alanyl propyl alanyl methylcoumarylamide substrate; read-out: 50% Inhibitory concentration toward Human elastase
T3 sequence (P08246 30-247 limits assumed): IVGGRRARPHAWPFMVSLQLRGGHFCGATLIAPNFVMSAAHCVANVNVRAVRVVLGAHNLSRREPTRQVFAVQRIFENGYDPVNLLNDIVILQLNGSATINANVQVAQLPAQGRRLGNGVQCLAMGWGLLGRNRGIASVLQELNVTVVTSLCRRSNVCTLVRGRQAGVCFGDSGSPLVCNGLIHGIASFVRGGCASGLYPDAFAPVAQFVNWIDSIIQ
Procedure: (E) Measurement of inhibitory activity on proteases other than chymase
The inhibitory activity of the present compounds on human elastase, human cathepsin G, human urokinase, human thrombin, human plasmin, and human factor Xa was determined using their corresponding synthetic substrates in the same manner as for chymase. All the above proteases were those commercially available from Boehringer Mannheim or purified by a combination of known methods. The synthetic substrates were those produced by Peptide Renkyusho. The synthetic substrates for the respective proteases are as follows.
Human elastase Succinyl alanyl propyl alanyl methylcoumarylamide
The test was conducted several times. Chymase was prepared for each test in the manner described above. The compounds examined were compounds prepared in the above-described examples.

rat mast cells = assay: Inhibitory action on degranulation of mast cells (histamine release from rat mast cells); type: cell-based; details: Mast cell; rat peritoneal mast cells, anti-IgE antibody, 37° C.
Procedure: Inhibitory action on degranulation of mast cells
(A) Preparation of mast cells
30 ml of mast cell buffer solution (150 mM sodium chloride, 3.7 mM potassium chloride, 3.0 mM disodium hydrogen phosphate, 3.5 mM sodium dihydrogen phosphate, 5.6 mM dextrose, pH 7.0) was injected into the abdomen of a rat(SD, male, 8 to 10 week-old), and intra peritoneal cavity cells were recovered and centrifuged at 800 rpm for 5 minutes, and then the abdomen infiltration cells were recovered as precipitates. The precipitated cells were further washed twice with the mast cell buffer solution, suspended again at a predetermined density, and used in the objective experiment.
(B) Inhibitory action on degranulation of mast cells (inhibitory action on histamine release from rat mast cells)
The mast cells obtained in the procedure in (A) above were suspended at 1×10^5 cells in the mast cell buffer solution and kept at 37° C. 2 μl of each drug and 200 μl of the cell suspension were added into a 1.5 ml test tube previously kept at 37° C. and incubated at 37° C. for 10 minutes. After incubation, 2 μl anti-IgE antibody (BETHYL Lab. Inc.) was added to it and further incubated at 37° C. for 15 minutes. After the end of the reaction, the reaction mixture was immediately cooled on ice and centrifuged at 4° C. at 4000 rpm for 5 minutes, and then the supernatant was stored. Histamine in the supernatant was modified with ortho-phthalaldehyde and measured by high performance liquid chromatography to determine 50% inhibitory concentration (IC50: μM).

[1] = substrate succinyl leucyl leucyl valyl tyrosyl methylcoumarylamide, pH 8.0, 37° C., 15 min, read-out: Rat Chymase (IC50: nM), 50% inhibitory concentration

| Structure (SMILES) | IC50 (rat chymase; [1]) | IC50 (dog chymase) | IC50 (Human elastase) | IC50 (rat mast cells) | IC50 (rat chymase) |
| --- | --- | --- | --- | --- | --- |
| Nc1cnc(-c2ccccc2)n(CC(=O)NC(Cc2ccccc2)C(=O)C(=O)CCCc2ccccc2)c1=O (stereo not shown) [Compound 40] | 46 nM | 13 nM | 1900 nM | 1.8 µM |  |
| CCCCC(=O)C(=O)C(Cc1ccccc1)NC(=O)Cn1c(-c2ccccc2)ncc(N)c1=O (stereo not shown) [Compound 44] | 79 nM | 16 nM |  | 14 µM |  |
| CC(=O)C(=O)C(Cc1cccc(F)c1)NC(=O)Cn1c(-c2ccccc2)ncc(N)c1=O (stereo not shown) [Compound 52, 2-(5-Amino-6-oxo-2-phenyl-1,6-dihydropyrimidine-1-yl)-N-{1-(3-fluorophenyl)methyl-2,3-dioxo}butylacetamide] | 190 nM | 27 nM | > 10000 nM | 50 µM |  |
| CCOC(=O)CCCC(=O)C(=O)C(Cc1cccc(F)c1)NC(=O)Cn1c(-c2ccccc2)ncc(N)c1=O (stereo not shown) [Compound 54] | 45 nM | 3.6 nM |  | 35 µM |  |
| CC(C)(C)OC(=O)Nc1cnc(-c2ccccc2)n(CC(=O)NC(Cc2ccccc2)C(=O)C(=O)CCCn2ccccc2=O)c1=O (stereo not shown) [Compound 72, 2-(5-t-Butyloxycarbonylamino-6-oxo-2-phenyl-1,6-dihydropyrimidine-1-yl)-N-{2,3-dioxo-6-(2-oxo-1,2-dihydropyridine-1-yl)-1-phenylmethyl}hexylacetamide] | 2100 nM | 1.6 nM | 5500 nM |  |  |
| Nc1cnc(-c2ccccc2)n(CC(=O)NC(Cc2ccccc2)C(=O)C(=O)CCCn2ccccc2=O)c1=O (stereo not shown) [Compound 73, 2-(5-Amino-6-oxo-2-phenyl-1,6-dihydropyrimidine-1-yl)-N-{2,3-dioxo-1-phenylmethyl-6-(2-oxo-1,2-dihydropyridine-1-yl)}hexylacetamide hydrochloride] | 550 nM | 2.9 nM |  |  |  |
| CC(C)(C)OC(=O)Nc1cnc(-c2ccccc2)n(CC(=O)NC(Cc2ccccc2)C(=O)C(=O)CCCOc2ccccn2)c1=O (stereo not shown) [Compound 74, 2-(5-t-Butyloxycarbonylamino-6-oxo-2-phenyl-1,6-dihydropyrimidine-1-yl)-N-{2,3-dioxo-6-(2-pyridyloxy)-1-phenylmethyl}hexylacetamide] | 510 nM | 0.92 nM | 6000 nM |  |  |
| O=CNc1cnc(-c2ccccc2)n(CC(=O)NC(Cc2ccccc2)C(=O)C(=O)CCCOc2ccccn2)c1=O (stereo not shown) [Compound 79, 2-(5-Formylamino-6-oxo-2-phenyl-1,6-dihydropyrimidine-1-yl)-N-{2,3-dioxo-1-phenylmethyl-6-(2-pyridyloxy)}hexylacetamide] | 19 nM | 0.32 nM | > 10000 nM |  |  |
| CC(=O)Nc1cnc(-c2ccccc2)n(CC(=O)NC(Cc2ccccc2)C(=O)C(=O)CCCOc2ccccn2)c1=O (stereo not shown) [Compound 80, 2-(5-Acetylamino-6-oxo-2-phenyl-1,6-dihydropyrimidine1-yl)-N-{2,3-dioxo-1-phenylmethyl-6-(-2-pyridyloxy)}hexyl-acetamide] | 52 nM | 0.35 nM | 2100 nM |  |  |
| O=C(Cn1c(-c2ccccc2)ncc(NS(=O)(=O)NCc2ccccc2)c1=O)NC(Cc1ccccc1)C(=O)C(=O)CCCOc1ccccn1 (stereo not shown) [Compound 82, 2-(5-Benzylaminosulfonylamino-6-oxo-2-phenyl-1,6-dihydropyrimidine-1-yl)-N-{2,3-dioxo-1-phenylmethyl-6-(2-pyridyloxy)}hexylacetamide] |  | 0.14 nM | 4000 nM |  | 19 nM |
